From PubChem BioAssay (NCI)
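Cultured in 96-well plates, cells were exposed to test compound for 48 hours across five concentrations. TGI marks complete inhibition of growth.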

Legend:
Experiment in all cases: inhibition of tumour cell growth, NCI panel, 48 h
786-0 renal = system: 786-0 renal
A498 renal = system: A498 renal
A549 NSCLC = system: A549 NSCLC
ACHN renal = system: ACHN renal
BT-549 breast = system: BT-549 breast
CAKI-1 renal = system: CAKI-1 renal
CCRF-CEM leukemia = system: CCRF-CEM leukemia
COLO 205 colon = system: COLO 205 colon
DLD-1 colon = system: DLD-1 colon
DMS 114 small cell lung = system: DMS 114 small cell lung
DU-145 prostate = system: DU-145 prostate
EKVX NSCLC = system: EKVX NSCLC
HCC-2998 colon = system: HCC-2998 colon
HCT-116 colon = system: HCT-116 colon
HCT-15 colon = system: HCT-15 colon
HL-60(TB) leukemia = system: HL-60(TB) leukemia
HOP-18 NSCLC = system: HOP-18 NSCLC
HOP-62 NSCLC = system: HOP-62 NSCLC
HOP-92 NSCLC = system: HOP-92 NSCLC
HS 578T breast = system: HS 578T breast
HT29 colon = system: HT29 colon
IGROV1 ovarian = system: IGROV1 ovarian
K-562 leukemia = system: K-562 leukemia
KM12 colon = system: KM12 colon
KM20L2 colon = system: KM20L2 colon
LOX IMVI melanoma = system: LOX IMVI melanoma
LXFL 529 NSCLC = system: LXFL 529 NSCLC
M14 melanoma = system: M14 melanoma
M19-MEL melanoma = system: M19-MEL melanoma
MALME-3M melanoma = system: MALME-3M melanoma
MCF7 breast = system: MCF7 breast
MDA-MB-231 breast = system: MDA-MB-231 breast
MDA-MB-435 = system: MDA-MB-435
MOLT-4 leukemia = system: MOLT-4 leukemia
NCI-H226 lung = system: NCI-H226 lung
NCI-H23 lung = system: NCI-H23 lung
NCI-H460 lung = system: NCI-H460 lung
NCI-H522 lung = system: NCI-H522 lung
NCI/ADR-RES ovarian = system: NCI/ADR-RES ovarian
OVCAR-3 ovarian = system: OVCAR-3 ovarian
OVCAR-4 ovarian = system: OVCAR-4 ovarian
OVCAR-5 ovarian = system: OVCAR-5 ovarian
OVCAR-8 ovarian = system: OVCAR-8 ovarian
PC-3 prostate = system: PC-3 prostate
RPMI-8226 leukemia = system: RPMI-8226 leukemia
RXF 393 renal = system: RXF 393 renal
SF-268 CNS = system: SF-268 CNS
SF-295 CNS = system: SF-295 CNS
SF-539 CNS = system: SF-539 CNS
SK-MEL-2 melanoma = system: SK-MEL-2 melanoma
SK-MEL-28 melanoma = system: SK-MEL-28 melanoma
SK-MEL-5 melanoma = system: SK-MEL-5 melanoma
SK-OV-3 ovarian = system: SK-OV-3 ovarian
SN12C renal = system: SN12C renal
SNB-19 CNS = system: SNB-19 CNS
SNB-75 CNS = system: SNB-75 CNS
SNB-78 CNS = system: SNB-78 CNS
SR leukemia = system: SR leukemia
SW-620 colon = system: SW-620 colon
T-47D breast = system: T-47D breast
TK-10 renal = system: TK-10 renal
U251 CNS = system: U251 CNS
UACC-257 melanoma = system: UACC-257 melanoma
UACC-62 melanoma = system: UACC-62 melanoma
UO-31 renal = system: UO-31 renal
DMS 273 small cell lung = system: DMS 273 small cell lung
XF 498 CNS = system: XF 498 CNS

## CCc1nc2ccc(NCCN(C)C)c3c(=O)c4ccccc4n1c23
786-0 renal
  TGI: 7.66 µM
A498 renal
  TGI: 11 µM
A549 NSCLC
  TGI: 4.76 µM
ACHN renal
  TGI: 6.03 µM
BT-549 breast
  TGI: 21.2 µM
CAKI-1 renal
  TGI: 7.89 µM
CCRF-CEM leukemia
  TGI: 15.1 µM
COLO 205 colon
  TGI: 3.44 µM
DLD-1 colon
  TGI: 9.88 µM
DMS 114 small cell lung
  TGI: 14.8 µM
DU-145 prostate
  TGI: 3.4 µM
EKVX NSCLC
  TGI: 6.78 µM
HCC-2998 colon
  TGI: 5.8 µM
HCT-116 colon
  TGI: 6.26 µM
HCT-15 colon
  TGI: 4.66 µM
HL-60(TB) leukemia
  TGI: 8.68 µM
HOP-18 NSCLC
  TGI: 6.55 µM
HOP-62 NSCLC
  TGI: 5.12 µM
HOP-92 NSCLC
  TGI: 5.26 µM
HS 578T breast
  TGI: 5.94 µM
HT29 colon
  TGI: 5.08 µM
IGROV1 ovarian
  TGI: 4.82 µM
K-562 leukemia
  TGI: 22 µM
KM12 colon
  TGI: 6.42 µM
KM20L2 colon
  TGI: 6.31 µM
LOX IMVI melanoma
  TGI: 2.63 µM
LXFL 529 NSCLC
  TGI: 13.9 µM
M14 melanoma
  TGI: 4.68 µM
M19-MEL melanoma
  TGI: 10.4 µM
MALME-3M melanoma
  TGI: 7.47 µM
MCF7 breast
  TGI: 21.1 µM
MDA-MB-231 breast
  TGI: 2.36 µM
MDA-MB-435
  TGI: 2.4 µM
MOLT-4 leukemia
  TGI: 6.28 µM
NCI-H226 lung
  TGI: 4.34 µM
NCI-H23 lung
  TGI: 3.23 µM
NCI-H460 lung
  TGI: 3.07 µM
NCI-H522 lung
  TGI: 4.89 µM
NCI/ADR-RES ovarian
  TGI: 3.38 µM
OVCAR-3 ovarian
  TGI: 4.45 µM
OVCAR-4 ovarian
  TGI: 4.35 µM
OVCAR-5 ovarian
  TGI: 6.69 µM
OVCAR-8 ovarian
  TGI: 4.76 µM
PC-3 prostate
  TGI: 6.44 µM
RPMI-8226 leukemia
  TGI: 7.78 µM
RXF 393 renal
  TGI: 6.03 µM
SF-268 CNS
  TGI: 5.36 µM
SF-295 CNS
  TGI: 5.04 µM
SF-539 CNS
  TGI: 15 µM
SK-MEL-2 melanoma
  TGI: 6.98 µM
SK-MEL-28 melanoma
  TGI: 9.43 µM
SK-MEL-5 melanoma
  TGI: 2.32 µM
SK-OV-3 ovarian
  TGI: 13.3 µM
SN12C renal
  TGI: 10.6 µM
SNB-19 CNS
  TGI: 16.5 µM
SNB-75 CNS
  TGI: 11.9 µM
SNB-78 CNS
  TGI: 19.3 µM
SR leukemia
  TGI: 7.66 µM
SW-620 colon
  TGI: 4.99 µM
T-47D breast
  TGI: 20.8 µM
TK-10 renal
  TGI: 12.2 µM
U251 CNS
  TGI: 12.1 µM
UACC-257 melanoma
  TGI: 11.8 µM
UACC-62 melanoma
  TGI: 8.06 µM
UO-31 renal
  TGI: 10 µM

## CC(=O)C1=C(O)C2C3c4c[nH]c5cccc(c45)CC3C(C)(C)N2C1=O (configuration not stated)
786-0 renal
  TGI: > 100 µM
A498 renal
  TGI: 98.2 µM
A549 NSCLC
  TGI: > 100 µM
ACHN renal
  TGI: > 100 µM
CAKI-1 renal
  TGI: > 100 µM
CCRF-CEM leukemia
  TGI: > 100 µM
COLO 205 colon
  TGI: > 100 µM
DLD-1 colon
  TGI: > 100 µM
DMS 114 small cell lung
  TGI: > 100 µM
DMS 273 small cell lung
  TGI: > 100 µM
EKVX NSCLC
  TGI: > 100 µM
HCC-2998 colon
  TGI: 63.4 µM
HCT-15 colon
  TGI: > 100 µM
HL-60(TB) leukemia
  TGI: 9.85 µM
HOP-18 NSCLC
  TGI: 75.8 µM
HOP-62 NSCLC
  TGI: 22.4 µM
HOP-92 NSCLC
  TGI: > 100 µM
HT29 colon
  TGI: > 100 µM
IGROV1 ovarian
  TGI: > 100 µM
K-562 leukemia
  TGI: > 100 µM
KM12 colon
  TGI: > 100 µM
KM20L2 colon
  TGI: > 100 µM
LOX IMVI melanoma
  TGI: 67.3 µM
LXFL 529 NSCLC
  TGI: > 100 µM
M14 melanoma
  TGI: > 100 µM
M19-MEL melanoma
  TGI: > 100 µM
MALME-3M melanoma
  TGI: > 100 µM
MOLT-4 leukemia
  TGI: > 100 µM
NCI-H226 lung
  TGI: 71.4 µM
NCI-H23 lung
  TGI: 64.3 µM
NCI-H460 lung
  TGI: 31.8 µM
NCI-H522 lung
  TGI: 63.4 µM
OVCAR-3 ovarian
  TGI: 74.3 µM
OVCAR-4 ovarian
  TGI: > 100 µM
OVCAR-5 ovarian
  TGI: > 100 µM
RPMI-8226 leukemia
  TGI: > 100 µM
SF-268 CNS
  TGI: > 100 µM
SF-295 CNS
  TGI: > 100 µM
SF-539 CNS
  TGI: 44.4 µM
SK-MEL-2 melanoma
  TGI: 44.6 µM
SK-MEL-28 melanoma
  TGI: > 100 µM
SK-MEL-5 melanoma
  TGI: 27.2 µM
SK-OV-3 ovarian
  TGI: > 100 µM
SNB-19 CNS
  TGI: > 100 µM
SNB-78 CNS
  TGI: > 100 µM
SW-620 colon
  TGI: > 100 µM
TK-10 renal
  TGI: > 100 µM
U251 CNS
  TGI: > 100 µM
UACC-257 melanoma
  TGI: > 100 µM
UACC-62 melanoma
  TGI: > 100 µM
UO-31 renal
  TGI: 81.6 µM
XF 498 CNS
  TGI: > 100 µM
